Where two headings read alike, the source gives them in different places. Marks after values point to notes of the source that are not given here.
Experiments:
patients with ALS [1] = experiment: Part 2: 4-week single-blind placebo washout period (withdrawal effects)
patients with ALS [2] = tested on: patients with ALS
[3] = 150 mg during Part 1, placebo washout period
[4] = 300 mg during Part 1, placebo washout period
[5] = combined active treatment groups, Part 1

CCCN[C@@H]1CCc2nc(N)sc2C1 [dexpramipexole, (6R)-2-amino-4,5,6,7-tetrahydro-6-(propylamino)benzothiazole]
TEAE: Pyrexia (patients with ALS [1]; [3]): 0 N (%)
TEAE: Respiratory, Thoracic and Mediastinal Disorders (patients with ALS [1]; [3]): 2 (8%) N (%)
mean change from baseline in ALSFRS-R score over 4 weeks (patients with ALS [1]; [3]): −1.0
mean change from baseline in VC over 4 weeks (patients with ALS [1]; [3]): −1.7%
serious TEAE: Disease progression (patients with ALS [1]; [3]): 0 N (%)
serious TEAE: Dyspnoea (patients with ALS [1]; [3]): 0 N (%)
serious TEAE: General Disorders and Administration Site Conditions (patients with ALS [1]; [3]): 0 N (%)
serious TEAE: Renal and Urinary Disorders (patients with ALS [1]; [3]): 0 N (%)
serious TEAE: Respiratory, Thoracic and Mediastinal Disorders (patients with ALS [1]; [3]): 0 N (%)
serious TEAE: Urethral obstruction (patients with ALS [1]; [3]): 0 N (%)
serious TEAE: Urinary retention (patients with ALS [1]; [3]): 0 N (%)
≧1 TEAE (patients with ALS [1]; [3]): 13 (52%) N (%)
≧1 TEAE with an outcome of death (patients with ALS [1]; [3]): 0 N (%)
≧1 serious TEAE (including death) (patients with ALS [1]; [3]): 0 N (%)
≧1 serious treatment-related TEAE (patients with ALS [1]; [3]): 0 N (%)
≧1 severe TEAE (patients with ALS [1]; [3]): 0 N (%)
≧1 treatment-related TEAE (patients with ALS [1]; [3]): 2 (8%) N (%)
Neutrophil Count, Mean (SD) (patients with ALS [1]; 300 mg during Part 1, Baseline (Part 1: Week 12)): 3.905 (1.9377) ×10^3/μL
Neutrophil Count, Mean (SD) (patients with ALS [1]; 300 mg during Part 1, Part 2: Week 4 (end of placebo washout)): 4.112 (1.1979) ×10^3/μL
ALS-related TEAE: Disease progression (patients with ALS [1]; [4]): 0 N (%)
ALS-related TEAE: Dyspnoea (patients with ALS [1]; [4]): 1 (4%) N (%)
ALS-related TEAE: Fall (patients with ALS [1]; [4]): 2 (8%) N (%)
ALS-related TEAE: General Disorders and Administration Site Conditions (patients with ALS [1]; [4]): 0 N (%)
ALS-related TEAE: Injury, Poisoning and Procedural Complications (patients with ALS [1]; [4]): 2 (8%) N (%)
ALS-related TEAE: Muscle spasms (patients with ALS [1]; [4]): 1 (4%) N (%)
ALS-related TEAE: Muscular weakness (patients with ALS [1]; [4]): 0 N (%)
ALS-related TEAE: Musculoskeletal and Connective Tissue Disorders (patients with ALS [1]; [4]): 1 (4%) N (%)
ALS-related TEAE: Respiratory, Thoracic and Mediastinal Disorders (patients with ALS [1]; [4]): 1 (4%) N (%)
Neutrophil Count, Mean Δ (SD) from baseline to Week 4 (patients with ALS [1]; [4]): 0.130 (1.3502) ×10^3/μL
Number of TEAEs (patients with ALS [1]; [4]): 46
Number of serious TEAEs (patients with ALS [1]; [4]): 1
Number of severe TEAEs (patients with ALS [1]; [4]): 1
Number of treatment-related TEAEs (patients with ALS [1]; [4]): 3
Subjects with a TEAE with action taken of study drug discontinued (patients with ALS [1]; [4]): 1 (4%)^b N (%)
Subjects with ≧1 ALS-related TEAE (patients with ALS [1]; [4]): 5 (21%) N (%)
TEAE: Anxiety (patients with ALS [1]; [4]): 0 N (%)
TEAE: Back pain (patients with ALS [1]; [4]): 1 (4%) N (%)
TEAE: Constipation (patients with ALS [1]; [4]): 3 (13%) N (%)
TEAE: Cough (patients with ALS [1]; [4]): 0 N (%)
TEAE: Diarrhoea (patients with ALS [1]; [4]): 1 (4%) N (%)
TEAE: Dyspnoea (patients with ALS [1]; [4]): 1 (4%) N (%)
TEAE: Fall (patients with ALS [1]; [4]): 3 (13%) N (%)
TEAE: Gastrointestinal Disorders (patients with ALS [1]; [4]): 3 (13%) N (%)
TEAE: General Disorders and Administration Site Conditions (patients with ALS [1]; [4]): 3 (13%) N (%)
TEAE: Injury, Poisoning and Procedural Complications (patients with ALS [1]; [4]): 6 (25%) N (%)
TEAE: Muscle spasms (patients with ALS [1]; [4]): 1 (4%) N (%)
TEAE: Muscular weakness (patients with ALS [1]; [4]): 0 N (%)
TEAE: Musculoskeletal and Connective Tissue Disorders (patients with ALS [1]; [4]): 2 (8%) N (%)
TEAE: Nausea (patients with ALS [1]; [4]): 2 (8%) N (%)
TEAE: Post lumbar puncture syndrome (patients with ALS [1]; [4]): 1 (4%) N (%)
TEAE: Psychiatric Disorders (patients with ALS [1]; [4]): 0 N (%)
TEAE: Pyrexia (patients with ALS [1]; [4]): 2 (8%) N (%)
TEAE: Respiratory, Thoracic and Mediastinal Disorders (patients with ALS [1]; [4]): 1 (4%) N (%)
mean change from baseline in ALSFRS-R score over 4 weeks (patients with ALS [1]; [4]): −1.5
mean change from baseline in VC over 4 weeks (patients with ALS [1]; [4]): −2.7%
serious TEAE: Disease progression (patients with ALS [1]; [4]): 0 N (%)
serious TEAE: Dyspnoea (patients with ALS [1]; [4]): 1 (4%) N (%)
serious TEAE: General Disorders and Administration Site Conditions (patients with ALS [1]; [4]): 0 N (%)
serious TEAE: Renal and Urinary Disorders (patients with ALS [1]; [4]): 0 N (%)
serious TEAE: Respiratory, Thoracic and Mediastinal Disorders (patients with ALS [1]; [4]): 1 (4%) N (%)
serious TEAE: Urethral obstruction (patients with ALS [1]; [4]): 0 N (%)
serious TEAE: Urinary retention (patients with ALS [1]; [4]): 0 N (%)
subjects who required a tracheostomy (patients with ALS [1]; [4]): 1 subject
≧1 TEAE (patients with ALS [1]; [4]): 11 (46%) N (%)
≧1 TEAE with an outcome of death (patients with ALS [1]; [4]): 0 N (%)
≧1 serious TEAE (including death) (patients with ALS [1]; [4]): 1 (4%) N (%)
≧1 serious treatment-related TEAE (patients with ALS [1]; [4]): 0 N (%)
≧1 severe TEAE (patients with ALS [1]; [4]): 1 (4%) N (%)
≧1 treatment-related TEAE (patients with ALS [1]; [4]): 2 (8%) N (%)
Total AE's (patients with ALS [2]; 50 mg, 12 weeks): 19 (82.6%) N (%)
percentage of subjects reporting AEs (patients with ALS [2]; 50 mg, Part 1): 83%
subjects reporting SAEs (patients with ALS [2]; 50 mg, Part 1): 2 subjects
subjects with at least 1 AE possibly or probably treatment-related (patients with ALS [2]; 50 mg, Part 1): 17%
Total AE's (patients with ALS [2]; 150 mg, 12 weeks): 25 (96.2%) N (%)
Total AE's (patients with ALS [2]; 300 mg, 12 weeks): 23 (88.5%) N (%)
percentage of subjects reporting AEs (patients with ALS [2]; 300 mg, Part 1): 89%
subjects discontinued due to adverse event (nausea) (patients with ALS [2]; 300 mg, Part 1): 1 subjects
subjects reporting SAEs (patients with ALS [2]; 300 mg, Part 1): 3 subjects
subjects with at least 1 AE possibly or probably treatment-related (patients with ALS [2]; 300 mg, Part 1): 27%
deaths during Part 1 (patients with ALS [2]; 50, 150, 300 mg, 12 weeks): No deaths
AE fall (patients with ALS [2]; [5]): 32%
AE headache (patients with ALS [2]; [5]): 13%
AE muscular weakness (patients with ALS [2]; [5]): 24%
AE nausea (patients with ALS [2]; [5]): 11%
AE post lumber puncture syndrome (patients with ALS [2]; [5]): 19%
safety and tolerability (patients with ALS [2]; total daily doses of 50, 150, 300 mg, 12 weeks): safe and well-tolerated

— patent US20130245081A1, “Compositions and Methods for Treating Amyotrophic Lateral Sclerosis” (priority 2009, published 2013)
